Marks after values point to notes of the source that are not given here.
Experiments:
[1] = molecular target: T1, catalytic domain of the human HMG-CoA reductase (Homo sapiens, UniProt P04035); assay: HMG-CoA reductase activity and inhibition assay (Sigma CS-1090 kit, NADPH oxidation at 340 nm); assay type: biochemical; details: compound at 300 nM; n = 3 independent experiments
T1 construct: containing the catalytic domain of the human HMG-CoA reductase; purchased Sigma-Aldrich CS-1090
T1 sequence (P04035 426-888 limits assumed): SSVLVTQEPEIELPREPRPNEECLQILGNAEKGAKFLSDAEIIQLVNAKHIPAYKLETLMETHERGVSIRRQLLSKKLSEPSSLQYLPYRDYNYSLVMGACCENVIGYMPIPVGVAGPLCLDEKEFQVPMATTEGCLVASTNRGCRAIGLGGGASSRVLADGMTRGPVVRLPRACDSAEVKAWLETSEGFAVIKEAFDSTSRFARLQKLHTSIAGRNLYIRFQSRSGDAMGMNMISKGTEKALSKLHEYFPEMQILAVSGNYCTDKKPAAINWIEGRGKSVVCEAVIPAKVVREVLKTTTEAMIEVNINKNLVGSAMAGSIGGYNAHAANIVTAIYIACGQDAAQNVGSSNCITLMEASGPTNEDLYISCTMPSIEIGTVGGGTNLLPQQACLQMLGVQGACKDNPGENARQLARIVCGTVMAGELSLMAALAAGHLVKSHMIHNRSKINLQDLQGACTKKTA
Method: The human HMG-CoA reductase activity and inhibition assays were performed using the HMG-CoA reductase Assay Kit from Sigma-Aldrich (Sigma CS-1090), containing the catalytic domain of the human HMG-CoA reductase. Enzyme activity was determined spectrophotometrically, measuring the oxidation of NADPH at 340 nm. The reaction mixture contained: 0.13 mM HMG-CoA, HMG-CoA reductase, and 50 mM Tris-HCl, (pH 7.5). After 15 min incubation at 37° C., the reaction was started with the addition of 0.13 mM NADPH, and monitored for 30 min. The enzyme activity was determined using the linear domain of the curve. These experiments were generally performed in small reaction volumes to increase throughput. Experiments in larger reaction volumes can improve reliability of obtained values, and are planned.

[2] = molecular target: T2, mitochondrial complex III (Mus musculus, UniProt P00158); assay: Complex III enzyme activity in mitochondrial fractions of C2C12 cells (cytochrome c reduction at 550 nm); assay type: biochemical; details: compound at 100 μM; background by antimycin A (2.5 μM); n = 3 independent experiments
T2 construct: the supernatant containing the mitochondria was pelleted at 14,000 g; endogenous in cells; host or cells: C2C12 cells, mitochondrial fraction
Method: C2C12 pellets of 20·10^6 cells were snap frozen in liquid nitrogen and kept at −80° C. until use. For preparation of the mitochondrial fractions, tissues and cells were homogenized, resuspended in 10 mM Tris-HCl (pH 7.6), and snap frozen in aliquots as follows: cells were resuspended in 10 mM Tris-HCl and pottered, and sucrose was added (215 mM). The lysate was cleared of unbroken cells by centrifugation (10 minutes 600 g) after which the supernatant containing the mitochondria was pelleted at 14,000 g for 10 minutes, resuspended in 10 mM Tris-HCl (pH 7.6), and snap frozen in aliquots. Complex III enzyme activity was measured spectrophotometrically in duplicate as described before by determination of the cytochrome c reduction at 550 nm (Janssen et al., 2007; Mourmans et al., 1997; Rodenburg, 2011). For these measurements the following substrates were used: decylubiquinol (300 μM) and cytochrome c (50 μM). Background substraction was based on decylubiquinol auto-oxidation rates for FIG. 2, and on antimycin A (2.5 μM) for table 4. The enzyme activity was determined using the linear domain of the curve. These experiments were generally performed in small reaction volumes to increase throughput. Experiments in larger reaction volumes can improve reliability of obtained values, and are planned.

HMG-CoA reductase = molecular target: T3, HMG-CoA reductase (Homo sapiens, UniProt P04035); details: Kajinami K, 2003; Istvan ES, 2001; cited from earlier work
T3 sequence (P04035 1-888): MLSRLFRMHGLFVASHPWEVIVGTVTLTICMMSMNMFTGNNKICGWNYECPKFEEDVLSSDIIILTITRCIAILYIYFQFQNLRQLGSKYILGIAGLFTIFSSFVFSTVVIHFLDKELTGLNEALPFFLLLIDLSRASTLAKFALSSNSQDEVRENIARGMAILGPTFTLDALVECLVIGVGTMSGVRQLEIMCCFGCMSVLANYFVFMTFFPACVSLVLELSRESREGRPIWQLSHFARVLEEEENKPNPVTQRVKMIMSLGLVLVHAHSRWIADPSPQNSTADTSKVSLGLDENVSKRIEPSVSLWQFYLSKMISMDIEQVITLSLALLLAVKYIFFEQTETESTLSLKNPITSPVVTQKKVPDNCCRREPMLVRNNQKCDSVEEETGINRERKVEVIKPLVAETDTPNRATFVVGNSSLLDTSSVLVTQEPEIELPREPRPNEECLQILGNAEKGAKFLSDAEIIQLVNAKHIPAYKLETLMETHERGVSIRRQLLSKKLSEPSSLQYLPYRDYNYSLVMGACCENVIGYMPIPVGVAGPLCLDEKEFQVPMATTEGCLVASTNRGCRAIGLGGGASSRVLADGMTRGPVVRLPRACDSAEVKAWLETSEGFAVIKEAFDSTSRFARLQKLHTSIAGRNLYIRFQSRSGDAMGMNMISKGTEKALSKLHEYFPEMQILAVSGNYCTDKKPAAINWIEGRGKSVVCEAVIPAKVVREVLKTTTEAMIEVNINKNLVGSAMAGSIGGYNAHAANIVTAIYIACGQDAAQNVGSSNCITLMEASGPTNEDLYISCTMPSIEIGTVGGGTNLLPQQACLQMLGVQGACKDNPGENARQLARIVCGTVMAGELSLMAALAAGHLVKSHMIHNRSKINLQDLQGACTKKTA

HMGR activity (% of control) Mean (SEM) [1]	complex III activity (% of control) Mean (SEM) [2]	SMILES	IC50 (HMG-CoA reductase) [nM]
82.82 (12.67) % of control	83.54 (5.98) % of control	CNC(=O)C[C@H](O)C[C@H](O)/C=C/c1c(-c2ccc(F)cc2)nc(N(C)S(C)(=O)=O)nc1C(C)C [rosuvastatin methylamide, (3R,5S,E)-7-(4-(4-fluorophenyl)-6-isopropyl-2-(N-methylmethylsulfonamido)-pyrimidin-5-yl)-3,5-dihydroxy-N-methylhept-6-enamide]	
60.87 (4.50) % of control	105.60 (13.57) % of control	CC(C)c1c(C(=O)Nc2ccccc2)c(-c2ccccc2)c(-c2ccc(F)cc2)n1CC[C@@H](O)C[C@@H](O)CC(=O)NO [atorvastatin hydroxamic acid, 1-((3R,5R)-3,5-dihydroxy-7-(hydroxyamino)-7-oxoheptyl)-5-(4-fluorophenyl)-2-isopropyl-N,4-diphenyl-1H-pyrrole-3-carboxamide]	
91.35 (15.32) % of control	88.90 (7.89) % of control	CC(C)c1nc(N(C)S(C)(=O)=O)nc(-c2ccc(F)cc2)c1/C=C/[C@@H](O)C[C@@H](O)CC(=O)N(C)C [rosuvastatin dimethylamide, (3R,5S,E)-7-(4-(4-fluorophenyl)-6-isopropyl-2-(N-methylmethylsulfonamido)-pyrimidin-5-yl)-3,5-dihydroxy-N,N-dimethylhept-6-enamide]	
72.43 (4.97) % of control	80.37 (5.13) % of control	CCC(C)(C)C(=O)O[C@H]1C[C@@H](C)C=C2C=C[C@H](C)[C@H](CC[C@@H](O)C[C@@H](O)Cc3nnn[nH]3)[C@H]21 [simvastatin tetrazole, (1S,3R,7S,8S,8aR)-8-((3R,5S)-3,5-dihydroxy-6-(1H-tetrazol-5-yl)hexyl)-3,7-dimethyl-1,2,3,7,8,8a-hexahydronaphthalen-1-yl 2,2-dimethylbutanoate]	
		O=C(O)C[C@H](O)C[C@H](O)/C=C/c1c(C2CC2)nc2ccccc2c1-c1ccc(F)cc1 [pitavastatine]	7
85.05 (10.36) % of control	53.24 (1.53) % of control	CCC(C)(C)C(=O)O[C@H]1C[C@@H](C)C=C2C=C[C@H](C)[C@H](CC[C@@H](O)C[C@@H](O)CC#N)[C@H]21 [simvastatin nitrile, (1S,3R,7S,8S,8aR)-8-((3R,5S)-6-cyano-3,5-dihydroxyhexyl)-3,7-dimethyl-1,2,3,7,8,8a-hexahydronaphthalen-1-yl 2,2-dimethylbutanoate]	
73.44 (2.81) % of control	74.37 (4.20) % of control	CCC(C)(C)C(=O)O[C@H]1C[C@@H](C)C=C2C=C[C@H](C)[C@H](CC[C@@H](O)C[C@@H](O)Cc3nc(=O)o[nH]3)[C@H]21 [simvastatin oxo-oxadiazole, (1S,3R,7S,8S,8aR)-8-((3R,5)-3,5-dihydroxy-6-(5-oxo-2,5-dihydro-1,2,4-oxadiazol-3-yl)hexyl)-3,7-dimethyl-1,2,3,7,8,8a-hexahydronaphthalen-1-yl 2,2-dimethylbutanoate]	
100.30 (7.82)^a % of control	143.50 (15.67) % of control	CC(C)c1nc(N(C)S(C)(=O)=O)nc(-c2ccc(F)cc2)c1/C=C/[C@@H](O)C[C@@H](O)c1nc(=O)o[nH]1 [rosuvastatin nor-oxo-oxadiazole, N-(5-((3S,5R,E)-3,5-dihydroxy-5-(5-oxo-2,5-dihydro-1,2,4-oxadiazol-3-yl)pent-1-en-1-yl)-4-(4-fluorophenyl)-6-isopropylpyrimidin-2-yl)-N-methylmethane-sulfonamide]	
86.12 (5.73) % of control	134.50 (17.29) % of control	CC(C)c1nc(N(C)S(C)(=O)=O)nc(-c2ccc(F)cc2)c1/C=C/[C@@H](O)C[C@@H](O)c1nnn[nH]1 [rosuvastatin nor-tetrazole, N-(5-((3S,5R,E)-3,5-dihydroxy-5-(1H-tetrazol-5-yl)pent-1-en-1-yl)-4-(4-fluorophenyl)-6-isopropylpyrimidin-2-yl)-N-methylmethanesulfonamide]	

Reference: US20190038588A1, “NOVEL CLASS OF COMPOUNDS FOR THE TREATMENT OF CARDIOVASCULAR DISEASE” (STICHTING KATHOLIEKE UNIVERSITEIT, priority 2016, published 2019)
